Laboratory results: US20100310591A1 (priority 2009, published 2010)

Tested on: CD4+ T cells (CD8+ depleted donor PBMC)
Assay type: cell-based, human
Settings: not given

Substance	frequency of recognition (responding vaccine recipients / tested)	in vitro IFN-γ response (in words)
Ac-LRMK-ava-TIKRSYNNTNQED—NH2 [Ii-Key peptide No. 177]	10/35	strongest in vitro IFN-γ responses
Ac-LRMK-ava-HLLSRINHFEKIQ—NH2 [Ii-Key peptide No. 121]	9/35	strongest in vitro IFN-γ responses
Ac-LRMK-ava-KKNSAYPTIKRSY—NH2 [Ii-Key peptide No. 170]	9/35	strongest in vitro IFN-γ responses

Tested on: CD4+ T cells (CD8+ depleted PBMC of rHA-responsive donors)
Assay type: cell-based, human
Settings: not given

Substance	in vitro CD4 response, fold above background [fold above background]	recognition frequency among donors [%]
PLILRDCSVAGWLLGNP [BEI 12]	3.3	–
KMEDGFLDVWTYNAELL [BEI 73]	15	–
LVPRIATRSKVNGQSGR [BEI 39]	3.8	–
VTHAQDILEKTHNGKL [BEI 8]	3.4	–
FFRNVVWLIKKNSTYPT [BEI 28]	3.7	–
YQGKSSFFRNVVWLIKK [BEI 27]	12	–
STLNQRLVPRIATRSKV [BEI 38]	13	–
LRNSPQRERRRKKRGLF [BEI 57]	4.1	–
SNVKNLYDKVRLQLRDN [BEI 78]	3.3	–
MEKNVTVTHAQDUKEKT [BEI 7]	12	–
KRGLFGAIAGFIEGGWQ [BEI 59]	–	21

Tested on: MHC class II molecules
Settings: cited from earlier work

Substance	share of maximal activity of any member of the series of Ii-key peptides
LRMK (SEQ ID NO: 3)	at least 50%
